Drawing on US8614207B2, “Inhibitors of hepatitis C virus” (Presidio Pharmaceuticals, Inc., priority 2010, dated 2013), this text covers EC50 for five molecules.

This test relates to HCV1b replication (bicistronic genotype 1b replicon in Huh 7 cells). As to the kind of experiment: HCV replicon assay, 1b_Huh-Luc/Neo-ET cell line, luciferase readout. Format: cell-based, HCV genotype 1b. The note with it: Hepatitis C virus, Group 1 / Group 2, read-out: EC50, concentration effective to produce a half-maximal inhibition of HCV1b replication. The procedure:
Biological activity of the compounds of the invention was determined using an HCV replicon assay. The 1b_Huh-Luc/Neo-ET cell line persistently expressing a bicistronic genotype 1b replicon in Huh 7 cells was obtained from ReBLikon GMBH. This cell line was used to test compound inhibition using luciferase enzyme activity readout as a measurement of compound inhibition of replicon levels.
On Day 1 (the day after plating), each compound is added in triplicate to the cells. Plates incubated for 72 […] prior to running the luciferase assay. Enzyme activity was measured using a Bright-Glo Kit (cat. number E2620) manufactured by Promega Corporation. The following equation was used to generate a percent control value for each compound. % Control=(Average Compound Value/Average Control)*100
The EC50 value was determined using GraphPad Prism and the following equation: Y=Bottom+(Top−Bottom)/(1+10^((Log IC50−X)*HillSlope))
EC50 values of compounds are repeated several times in the replicon assay.
On to `CNC(=O)c1c(-c2ccc(Oc3ccc(F)cc3)cc2)oc2cc3c(cc12)[C@@H](C)O[C@H](CS(C)(=O)=O)CN3S(C)(=O)=O` [Compound B216], for which the EC50 lay within 10 to 100 nM.

Take `CNC(=O)c1c(-c2ccc(F)cc2)oc2cc3c(cc12)[C@H](C)OCCN3S(C)(=O)=O` [Compound B45]: the EC50 is not above 10 nM. With `CNC(=O)c1c(-c2ccc(F)cc2)oc2cc3c(cc12)C(C)OCCN3S(C)(=O)=O` (centres unmarked) [Compound B22] the figure was 10 to 100 nM; with `CNC(=O)c1c(-c2ccc(F)cc2)oc2cc3c(cc12)[C@@H](C)O[C@H](CS(C)(=O)=O)CN3S(C)(=O)=O` [Compound B215], 10 to 100 nM; with `CNC(=O)c1c(-c2ccc(Oc3ccc(F)cc3)cc2)oc2cc3c(cc12)C(C)OC(CS(C)(=O)=O)CN3S(C)(=O)=O` (centres unmarked) [Compound B192], not above 10 nM.
